Test results from US4011328A, “Derivatives of pyridine-3-acetic acid, process for their preparation and applications thereof” (SERDEX - Societe d'Etudes, de Recherches, de Diffusion et …, priority 1973, dated 1977).

Assays:
Type in all cases: in vivo
[1] = tested on: 2-phenyl-1,4-benzoquinone-induced stretching of the rear feet and torsion of the trunk; assay: Siegmund test, analgesic power: phenylbenzoquinone-induced stretchings/torsions; details: Mus musculus, ip; mice; substance given 1 hour before intraperitoneal phenylbenzoquinone; observed 5th-10th minute
Description: The intraperitoneal injection of 0.25 ml of a hydroalcoholic solution of 2-phenyl-1,4-benzoquinone at a concentration of 0.02% produces in mice a particular syndrom characterized by the stretching of the rear feet and the torsion of the trunk.
The test is carried out on homogeneous groups of 20 to 30 mice with an average weight of 20 g.
The substance to be studied is administered to them at the time "0." One hour later the phenylbenzoquinone is administered intraperitoneally. The animals are observed individually for 5 minutes, between the 5th and 10th minute following the injection of the phenyl benzoquinone. The number of stretchings performed by each animal during the observation period is noted.
The percentage of activity of the substance is calculated by comparing the number of torsions performed by the animals and those performed by pilot animals.

[2] = tested on: Turfyl nicotinate (Trafuril)-induced erythema; assay: Erythema with Turfyl nicotinate (Trafuril), anti-inflammatory power; details: Cavia porcellus, po; male albino guinea-pigs; buccally 1 hour before test; result at the end of 5 minutes
Description: (§1) b. Anti-inflammatory power.
2. Erythema with Turfyl nicotinate(Trafuril).
The NAINING method is used (Br.jl.Pharmacol. 1963-21-104-12), slightly modified:
The test is carried out on homogeneous groups of six to 12 male albino guinea-pigs weighing 300-400 g, the skin of the back having been carefully plucked the day before.
On the day of the test an antibiogramme disc saturated with an alcoholic solution at 5% of Turfyl nicotinate is applied to the lumbar region for 1 minute.
The result is observed at the end of 5 minutes.
The results are recorded on an "all or nothing" basis, according to which an erythema appears at the place in which the disc was applied.
The treatment is administered buccally 1 hour before the test, with a uniform volume of 1 ml per kg of body weight; the products are placed in homogeneous suspension by the aid of 3% of gum arabic.
The pilot animals are given an equal volume of vehicle.
The percentage of erythema produced in the treated animals is compared with that of the pilot group observed at the same time.

[3] = tested on: carragheen-induced localized oedema; assay: Acute oedema with carragheen, anti-inflammatory power; details: Rattus norvegicus, po; male rats; buccally 1 hour before carragheen; oedema 3 hours after carragheen
Description: as §1
1. Acute oedema with carragheen.
(Winster C. A., Risley R. A., Nuss G. W. -- Proc.Soc.Biol. Med.1962,3,544-7).
The injection, under the arch of the rat's foot, of 0.05 ml of an aqueous gel with 1% carragheen produces a localized oedema which can be measured with an electric plethysmometer of the mercury type.
The percentage of inflammation can be calculated by measuring the volume of the […] foot before and 3 hours after the carragheen injection.
The treatment is given buccally, 1 hour before the carragheen.
The test is carried out on homogeneous groups of ten male rats of 180 ± 10 g.
For each animal the oedema is measured as follows: [formula]
When the percentage of oedema is known for the pilot group, the protection observed under the effect of the substance tested is deducted therefrom for the treated groups.

SMILES	ED50 [1] [mg/kg]	ED50 [2] [mg/kg]	ED50 [3] [mg/kg]
Cc1ccc2c(c1)-c1nc(C)c(CC(=O)O)cc1CO2 [Example 1]	150	78	16
COc1ccc(-c2nc(C)c(CC(=O)O)cc2-c2ccc(Cl)cc2)cc1 [Example 3]	0.9	5.2	28
